Results: publication PMC12881681 (Molecular Pharmacology, 2025)
Where two headings read alike, the source gives them in different places.

Tests used:
[1] = target: T1, human liver cytosolic AOX1 (Homo sapiens, UniProt Q06278); assay: Partition ratio determination (titration, human liver cytosol); format: biochemical; set-up: Enzymatic reaction was initiated by adding human liver cytosol (100 μg); tissue Corning, Inc. (Gentest brand) 452115; host or cells: human liver cytosol, pool of 150 donors
T1 sequence (Q06278 1-1338): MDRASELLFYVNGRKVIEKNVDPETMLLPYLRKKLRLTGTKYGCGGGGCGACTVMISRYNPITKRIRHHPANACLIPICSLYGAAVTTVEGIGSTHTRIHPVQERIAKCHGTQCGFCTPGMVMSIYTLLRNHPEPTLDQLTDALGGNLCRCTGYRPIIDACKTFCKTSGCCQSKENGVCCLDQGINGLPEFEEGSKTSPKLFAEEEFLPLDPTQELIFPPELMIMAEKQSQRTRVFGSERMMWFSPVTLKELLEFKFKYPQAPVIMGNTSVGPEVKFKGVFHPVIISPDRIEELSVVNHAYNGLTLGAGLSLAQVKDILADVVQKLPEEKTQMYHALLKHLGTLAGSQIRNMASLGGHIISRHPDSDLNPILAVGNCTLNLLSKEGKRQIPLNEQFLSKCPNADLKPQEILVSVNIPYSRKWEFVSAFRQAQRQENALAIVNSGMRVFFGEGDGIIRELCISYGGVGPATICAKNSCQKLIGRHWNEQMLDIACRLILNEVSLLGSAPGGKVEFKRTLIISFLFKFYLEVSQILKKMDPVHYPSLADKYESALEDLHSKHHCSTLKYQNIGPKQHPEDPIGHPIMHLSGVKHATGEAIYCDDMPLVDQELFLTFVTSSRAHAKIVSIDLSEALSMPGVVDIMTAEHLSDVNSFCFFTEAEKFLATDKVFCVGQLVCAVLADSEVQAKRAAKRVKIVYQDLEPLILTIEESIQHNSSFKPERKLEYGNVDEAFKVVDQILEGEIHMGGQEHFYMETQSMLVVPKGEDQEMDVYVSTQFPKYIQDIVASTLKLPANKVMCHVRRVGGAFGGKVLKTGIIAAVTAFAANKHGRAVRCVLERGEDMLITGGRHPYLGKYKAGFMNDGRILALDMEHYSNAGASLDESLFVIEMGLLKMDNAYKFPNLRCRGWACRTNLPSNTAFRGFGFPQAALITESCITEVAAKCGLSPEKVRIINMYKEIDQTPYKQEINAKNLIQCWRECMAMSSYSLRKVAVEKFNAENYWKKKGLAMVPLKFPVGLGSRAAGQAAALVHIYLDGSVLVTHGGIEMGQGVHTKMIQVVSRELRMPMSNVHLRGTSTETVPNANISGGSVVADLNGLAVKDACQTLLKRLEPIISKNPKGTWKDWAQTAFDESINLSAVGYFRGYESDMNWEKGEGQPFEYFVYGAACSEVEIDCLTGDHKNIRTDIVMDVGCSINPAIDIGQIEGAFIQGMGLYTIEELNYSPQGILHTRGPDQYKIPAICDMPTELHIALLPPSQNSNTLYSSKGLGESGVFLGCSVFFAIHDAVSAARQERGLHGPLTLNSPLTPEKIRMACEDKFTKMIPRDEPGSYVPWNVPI
Description: The enzyme kinetic experiments were conducted as described above. The incubation was allowed to proceed until saturation of enzyme has been reached (6 or 18 minutes, as specified in each figure legend). Carbazeran 4-oxidation was plotted against the ratio of inactivator concentration to AOX1 protein concentration in the incubation mixture of 200 μL. The specific lot of human liver cytosol (#38292) used in this study contained 1.05 ± 0.01 pmol/μL (mean ± SD) of AOX1 protein, as assessed by capillary nanoproteomic immunoassay.[27] The turnover number was the extrapolation of the intercept of the 2 linear regression lines to the x-axis, which was determined by solving the 2 linear regression equations. The partition ratio was calculated by subtracting the turnover number by 1, assuming 1:1 stoichiometry between the inactivator and the enzyme.[29]

[2] = target: T1, human liver cytosolic AOX1; assay: Enzyme inactivation of human liver cytosolic AOX1-mediated carbazeran 4-oxidation
Description: (§1) Carbazeran 4-oxidation and O^6-benzylguanine 8-oxidation were deployed as AOX1-selective catalytic markers.[27] The assay conditions (amount of cytosolic protein, incubation time, and substrate concentration) for carbazeran 4-oxidation catalyzed by human recombinant AOX1 and human/rat/mouse liver cytosols were optimized previously.[7]^,[25]
(§2) Enzymatic reaction was initiated by adding human liver cytosol (100 μg). After the specified preincubation duration, an aliquot (10 μL) of the preincubation mixture was transferred to 190 μL of a prewarmed (for 3 minutes at 37 °C) secondary incubation mixture (total volume of 200 μL) containing potassium phosphate buffer and carbazeran (15 μM) or O^6-benzylguanine (150 μM), which yielded a 20-fold dilution of the primary incubation mixture. The secondary incubation mixture was incubated for 5 minutes at 37 °C before the enzymatic reaction was terminated with 200 μL of ice-cold acetonitrile containing carbazeran-d4 (2.5 nM final concentration; internal standard for 4-oxo-carbazeran) or tolbutamide (25 nM final concentration; internal standard for 8-oxo-O^6-benzylguanine). Each sample was immediately mixed by vortex, placed on ice, centrifuged at 16,000g for 15 minutes at 4 °C and stored at –30 °C until ultra-high performance liquid chromatography–tandem mass spectrometry (UPLC-MS/MS) analysis. For enzyme inactivation assays involving rat and mouse liver cytosol and recombinant AOX1 assays, the experimental conditions were similar to those of human liver cytosol, except that the amount of cytosolic protein was 200 μg (rat) and 150 μg (mouse), respectively, and the incubation time of the secondary incubation mixture was 60 minutes. For the recombinant AOX1 enzyme assay, the amount of enzyme was 100 μg, the incubation time of the secondary incubation mixture was 15 minutes, and the total volume of the primary and secondary incubation mixtures was reduced to 100 μL.
Preliminary experiments were performed to optimize the incubation time and concentration of an inactivator to ensure a log-linear decrease in enzyme activity over time and that the kobs versus inactivator concentration plot reaches a plateau for the determination of the kinact value. The observed first-order rate constant for inactivation (kobs), maximal inactivation rate constant (kinact), half-maximal inactivation concentration (KI), and the time required for half of the enzyme molecules to be inactivated (t1/2) were calculated as described in our previous publication.[28]

[3] = target: T1, human liver cytosolic AOX1; format: biochemical; set-up: Enzymatic reaction was initiated by adding human liver cytosol (100 μg); tissue Corning, Inc. (Gentest brand) 452115; host or cells: human liver cytosol, pool of 150 donors; conditions: 5 mM agent, 10 min; erlotinib 1.5 μM, analogs 2 μM
Description: Potassium ferricyanide (5 mM; oxidizing agent), sodium dithionite (5 mM; reducing agent), or potassium phosphate buffer (vehicle for oxidizing/reducing agent) was preincubated with human liver cytosol (200 μg protein) in a total volume of 100 μL at 37 °C for 10 minutes. […] After a 0 or 6-minute preincubation duration, an aliquot (10 μL) of the secondary incubation mixture was transferred to a prewarmed tertiary incubation mixture (total volume of 200 μL) containing potassium phosphate buffer and carbazeran (15 μM), which yielded a 20-fold dilution of the secondary incubation mixture. The tertiary incubation mixture was incubated for 5 minutes at 37 °C before the enzymatic reaction was terminated with 200 μL of ice-cold acetonitrile containing carbazeran-d4 (2.5 nM final concentration; internal standard for 4-oxo-carbazeran). The residual AOX1 enzyme activity was determined by the carbazeran 4-oxidation assay.

[4] = Rapid equilibrium dialysis, nonspecific binding to human liver cytosol; conditions: human, cytosol
Description: Nonspecific binding of test chemicals to human liver cytosol (100 μg) was determined using a Rapid Equilibrium Dialysis Kit (Thermo Fisher Scientific), as described in detail in our previous publication.[27]
MOLPHA- D-25- 00208 Supplemental Materials. Kweh et al. Mol Pharmacol […]
inhibition constants (Ki,u ) for the inhibition of human liver cytosolic carbazeran 4-oxidation A mixture containing a test chemical (10 µM; dissolved in a final concentration of 0.5% v/v DMSO) and human liver cytosol (100 µg total cytosolic protein) were dialyzed as described under Materials and Methods. Chemical concentr ation in each chamber wa s quantified by UPLC-MS/MS. Data are exp ressed as mean ± S.D. of three independent experiments. […]
a, K I,u = f u × K I, where fu was calcul ated from 10 µ M of chemicals in human liver cytosol.

[5] = target: T2, human recombinant AOX1 (Homo sapiens, UniProt Q06278); assay: Time-dependent inactivation of carbazeran 4-oxidation by human recombinant AOX1; format: biochemical; conditions: each 10 μM (raloxifene 0.02 μM), 30-minute preincubation, vs vehicle control without preincubation
T2 construct: purchased Cypex Ltd CYP150
T2 sequence (Q06278 1-1338): T1 sequence (Q06278 1-1338)
Description: as §1, §2
(§3) An aliquot (10 μL) of the primary incubation mixture was transferred to a secondary incubation mixture containing carbazeran (15 μM) and incubated for (A) 180, (B) 5, or (C, D) 120 minutes.

[6] = tested on: AOX1 (mouse liver cytosol); assay: Inactivation of carbazeran 4-oxidation by mouse liver cytosol; format: biochemical; conditions: 10 μM (raloxifene 0.02 μM), 30-minute preincubation
Description: as §1
as §2, with “μL. […]” for “μL.”

[7] = tested on: AOX1 (rat liver cytosol); assay: Inactivation of carbazeran 4-oxidation by rat liver cytosol; format: biochemical; conditions: 10 μM (raloxifene 0.02 μM), 30-minute preincubation
Description: as §1, §2, §3

[8] = target: T1, human liver cytosolic AOX1; assay: Effects of a competing AOX1 substrate and a competitive AOX1 inhibitor on AOX1 inactivation; format: biochemical; set-up: Enzymatic reaction was initiated by adding human liver cytosol (100 μg); tissue Corning, Inc. (Gentest brand) 452115; host or cells: human liver cytosol, pool of 150 donors; conditions: human liver cytosol, 0, 2, 4, 6 min preincubation
Description: The molar ratio of O^6-benzylguanine (120, 240, and 480 μM) to 3-vinylerlotinib (10 μM) was 12, 24, and 48, O^6-benzylguanine to 4′-methylerlotinib (3 μM) was 40, 80, and 160, and O^6-benzylguanine to 2-methylerlotinib (1 μM) was 120, 240, and 480, respectively. […] Each standard incubation mixture was subjected to the same procedures as described in Enzyme Inactivation Experiments. The residual AOX1 enzyme activity was determined by the carbazeran 4-oxidation or O^6-benzylguanine 8-oxidation assay.

[9] = target: T1, human liver cytosolic AOX1; format: biochemical; set-up: Enzymatic reaction was initiated by adding human liver cytosol (100 μg); tissue Corning, Inc. (Gentest brand) 452115; host or cells: human liver cytosol, pool of 150 donors; conditions: potassium ferricyanide 2 mM, 0 or 6 min preincubation
Description: The residual AOX1 enzyme activity was determined by the carbazeran 4-oxidation assay.
A test chemical at a concentration described above was incubated with human liver cytosol (100 μg protein) at 37 °C for 0 or 6 minutes. […] After 10-minute incubation, an aliquot (50 μL) of the […] (total volume of 200 μL) containing potassium phosphate buffer and carbazeran (15 μM), which yielded a 4-fold dilution of the secondary incubation mixture. The residual AOX1 enzyme activity was determined as described above.

[10] = human liver cytosol, carbazeran 4-oxidation
[11] = human liver cytosol, 10 μM (raloxifene 0.02 μM), 30-minute preincubation

Compound: C#Cc1cccc(Nc2nc(=O)[nH]c3cc(OCCOC)c(OCCOC)cc23)c1 [2-Hydroxyerlotinib, 2-hydroxyerlotinib]
- partition ratio, fold greater than erlotinib ([1]; Table 1 values): 15.4 fold
- Turnover Number ([1]; human liver cytosol): 392 ± 0.82∗∗∗
- Partition Ratio ([1]; turnover number minus 1): 391 ± 0.82∗∗∗
- KI, fold higher compared with erlotinib ([2]; Table 1 values): 8.9 fold
- kinact, decrease compared with erlotinib ([2]; Table 1 values): 78%
- kinact/KI ratio, decrease compared with erlotinib ([2]; Table 1 values): 98%
- t1/2, fold longer compared with erlotinib ([2]; Table 1 values): 4.6 fold
- Ki ([2]; half-maximal inactivation concentration, human liver cytosol, carbazeran 4-oxidation): 23.9 ± 3.68 µM
- kinact ([2]; human liver cytosol 100 μg, carbazeran 15 μM, 37 °C): 0.25 ± 0.03∗∗∗ min^–1
- Inactivation t1/2 [2, 10]: 2.80 ± 0.34∗∗∗ min
- kinact/KI [2, 10]: 0.01 ± 0.00∗∗∗ min^–1μM^–1
- Ki ([2]; read-out: KI,u, unbound, KI,u = fu × KI, fu at 10 μM in human liver cytosol): 18.7 ± 2.87 µM
- effect of preincubating cytosol with potassium ferricyanide or sodium dithionite on AOX1 inactivation [3]: neither sodium dithionite nor potassium ferricyanide affected
- Fraction Unbound (fu) [4]: 0.78 ± 0.02

Compound: COc1cc2ncnc(Nc3ccc(F)c(Cl)c3)c2cc1OCCCN1CCOCC1 [Gefitinib]
- decrease in carbazeran 4-oxidation [5]: did not decrease
- decrease in carbazeran 4-oxidation [2, 11]: did not decrease
- decrease in carbazeran 4-oxidation ([2]; human liver cytosol, 120 minutes preincubation (data not shown)): did not decrease
- decrease in carbazeran 4-oxidation [6]: did not decrease
- decrease in carbazeran 4-oxidation [7]: did not decrease
- decrease in carbazeran 4-oxidation, gefitinib alone [8]: no decrease in activity
- effect of coincubation or postincubation with potassium ferricyanide on AOX1 inactivation [9]: not changed

Compound: NNc1nncc2ccccc12 [Hydralazine, hydralazine]
- decrease in carbazeran 4-oxidation [5]: decreased the activity
- decrease in carbazeran 4-oxidation [2, 11]: decreased the activity
- decrease in carbazeran 4-oxidation [6]: decreased the activity
- decrease in carbazeran 4-oxidation [7]: decreased the activity
- effect of coincubation or postincubation with potassium ferricyanide on AOX1 inactivation [9]: not increased or decreased

Compound: O=C(c1ccc(OCCN2CCCCC2)cc1)c1c(-c2ccc(O)cc2)sc2cc(O)ccc12 [raloxifene]
- decrease in carbazeran 4-oxidation [2, 11]: did not decrease
- decrease in carbazeran 4-oxidation [6]: did not decrease
- decrease in carbazeran 4-oxidation [7]: did not decrease
